Measurements reported in patent US9199983B2, “3-aryl-6-aryl-[1,2,4]triazolo[4,3-α]pyridines as inhibitors of cell proliferation and the use thereof” (priority 2010, dated 2015).
Counter-ions that a name gives are not always drawn.

What was measured:
[1] = tested on: liver cancer cell line HepG2; assay: MTT cancer cell cytotoxicity assay, HepG2; type: cell-based, human; settings: HepG2 cells, 48-72 h
Protocol: (§1) Identification of 3-(2-methoxyphenyl)-6-(4-methoxyphenyl)-[1,2,4]triazolo[4,3-a]pyridine and analogs as inhibitors of cell proliferation that were evaluated with standard MTT cancer cell cytotoxicity assay (IC50)
(§2) Human lung cancer cell line A549, breast cancer cell line T47D, liver cancer cell lines HepG2 and SMMC7721 as well as a mouse melanoma cell line B16F10 were used in the study. The cells were cultured in corresponding growth media recommended by American Type Culture Collection (ATCC) with the supplementation of penicillin G (100 U/ml)/streptomycin (100 µg/ml), and 10% fetal bovine serum (Hangzhou Sijiqing Biological Engineering Materials, Co., Ltd. China) at 37° C. in a humidified atmosphere containing 5% CO2. Cells at about 80% confluency were harvested by trypsinization. Cells were centrifuged, re-suspended in fresh growth media and counted. Corresponding numbers of cells were seeded to 96-well cell culture plates (HepG2 cell, T-47D and A549 cells at 3000 cells/well, SMMC-7721 cells at 5000 cells/well and B16F10 cells at 2000 cells/well) in a total volume of […]. Cells were incubated in CO2 incubator over night to allow the cells to attach. In next day, […] of medium containing testing (from 10 μM to 1 nM) or reference compounds was added to each well of the cells. Media without compound were used as 100% control. Cells were treated with each concentration of compounds in triplicates to ensure data accuracy. Cells were incubated with compounds in CO2 incubator for an additional 48-72 h at 37° C. After incubation, cells were removed from the CO2 incubator and […] of 5 mg/ml MTT (3-(4,5-dimethylthiazole-2-yl)-2,5-diphenyltetrazoliumbromide, Sigma) solution in PBS was added to each well. Cells were returned to CO2 incubator and incubated for additional 4 h. After the incubation, media were removed by aspiration and […] DMSO was added to each well. Plates were sealed with aluminum foil and shaked mildly on an orbital shaker for 10 min at room temperature. The absorption was measured at 550 nm with a plate reader (Varioskan Flash, Thermo Fisher Scientific) with 660 nm reading used as background control. The relative absorbance readings were calculated by subtracting readings at 660 nm from that at 550 nm. The relative absorbance was plotted again the concentrations of the testing compounds and the plots were fitted with a one-site lg(IC50) equation using Prism 5 software (GraphPad Software, Inc). The equation used in the curve fitting is as follows: relative absorbance reading=background reading+(maximal reading−brackground reading)/(1+10 ^(compound concentration-log IC50)). The background reading used in the calculation was obtained with 100% cell death using a reference anticancer drug, whereas the maximal reading was obtained in the well with no added compound. The IC50 value calculated from the equation represents the cytotoxic potency of a particular compound.

[2] = tested on: mouse melanoma cell line B16F10; assay: MTT cancer cell cytotoxicity assay, B16F10; type: cell-based; settings: 48-72 h
Protocol: as §1, §2

[3] = tested on: Human lung cancer cell line A549; assay: MTT cancer cell cytotoxicity assay, A549; type: cell-based; settings: A549 cells, 48-72 h
Protocol: as §1, §2

[4] = tested on: liver cancer cell line SMMC7721; assay: MTT cancer cell cytotoxicity assay, SMMC7721; type: cell-based, human; settings: 48-72 h
Protocol: as §1, §2

[5] = tested on: breast cancer cell line T47D; assay: MTT cancer cell cytotoxicity assay, T47D; type: cell-based, human; settings: T47D cells, 48-72 h
Protocol: as §1, §2

[6] = tested on: caspase-3 activation; assay: Caspase-3 activation (apoptosis induction) in T-47D cells; type: cell-based; settings: Homo sapiens; T47D cells, 24 h treatment; read-out: EC50 to induce caspase-3 activation, T47D
Protocol: Identification of 3-(2-methoxyphenyl)-6-(4-methoxyphenyl)-[1,2,4]triazolo[4,3-a]pyridine and analogs as inducers of apoptosis in solid tumor cells
Human breast cancer cell line T-47D and lung cancer cell line A549, growing in DMEM/F12+10% FBS media were seeded to a density of 20000 cells/well in 96-well cell culture plate and grew overnight (18-24 h) in CO2 cell culture incubator at 37° C. Next day the medium were removed by aspiration and […] fresh growth media was added to each well followed by […] of growth media containing 10× concentration of reference or testing compounds with 10% DMSO. Twenty four hours later, cell culture plates were centrifuged at 1000 g for 5 min and the supernatant was removed by emptying contents into a reservoir. Fifty μl of Lysis Buffer (10 mM Tris, pH7.5, 0.1M NaCl, 1 Mm EDTA, 0.01% Triton X-100) was added to each well and the plates were incubated with gentle agitation on an orbital shaker at 4° C. for 30 min. The plates were then centrifuged at 1000 g for 10 min at 4° C. and 20 μl of the supernatant was transferred from each well to a corresponding well in a black 384-well. Twenty μl of caspase-3 assay buffer (20 mM PIPES, pH7.4, 4 Mm EDTA and 0.2% CHAPS) containing 20 μM fluorogenic caspase-3 substrate ((Ac-DEVD)2-R110, AnaSpec Cat #60304-5) was added to each well. The samples were mixed by agitation and incubated at 37° C. for 3 h. The fluorescent intensity of each well was read on a fluorescent plate reader (Varioskan Flash, Thermo Fisher Scientific) with excitation wavelength at 496 nm and emission wavelength at 520 nm. The activity of compounds on caspase-3 activation was determined by plotting the relative fluorescent unit (RFU) against the testing concentrations of the compounds. The EC50 values were determined by fitting the above responding curves into Prism sigmoidal dose-response equation (GraphPad Software, Inc).

[7] = Mus musculus, B16-F10, B16F10 cells
[8] = Homo sapiens, SMMC-7721, SMMC7721 cells

Work on `COc1ccccc1-c1ccc2nnc(-c3ccccc3OC)n2c1` [Example 3, 3,6-Bis(2-methoxyphenyl)-[1,2,4]triazolo[4,3-a]pyridine] yielded an IC50 ([1]; Homo sapiens) greater than 10000 nM, an IC50 [2, 7] greater than 10000 nM and an IC50 ([3]; Homo sapiens) greater than 10000 nM. The IC50 [4, 8] was greater than 10000 nM and the IC50 ([5]; Homo sapiens) was greater than 10000 nM.
Compound `COc1ccc(-c2ccc3nnc(-c4ccc(OC)cc4OC)n3c2)cc1` [Example 71, 3-(2,4-Dimethoxyphenyl)-6-(4-methoxyphenyl)-[1,2,4]triazolo[4,3-a]pyridine] has an EC50 [6] of 117 nM, an IC50 ([1]; Homo sapiens) of 15 nM and an IC50 ([3]; Homo sapiens) of 16 nM. For the same compound, the IC50 [4, 8] was 8.7 nM and the IC50 ([5]; Homo sapiens) was 22 nM.
For `COc1cc(Cl)ccc1-c1nnc2ccc(-c3ccc(C)c(N)c3)cn12` [Example 90, 6-(3-Amino-4-methylphenyl)-3-(4-chloro-2-methoxyphenyl)-[1,2,4]triazolo[4,3-a]pyridine], the IC50 ([1]; Homo sapiens) was 5.4 nM, the IC50 [2, 7] was 4.6 nM and the IC50 ([3]; Homo sapiens) was 7.1 nM. The IC50 [4, 8] was 2.3 nM and the IC50 ([5]; Homo sapiens) was 5.5 nM.
`COc1cccc(-c2ccc3nnc(-c4ccccc4OC)n3c2)c1` [Example 2, 3-(2-Methoxyphenyl)-6-(3-methoxyphenyl)-[1,2,4]triazolo[4,3-a]pyridine] was tested, and the IC50 ([1]; Homo sapiens) was 189 nM, the IC50 [2, 7] was 152 nM and the IC50 ([3]; Homo sapiens) was 252 nM. For the same compound, the IC50 [4, 8] was 79 nM and the IC50 ([5]; Homo sapiens) was 184 nM.
For `COc1ccccc1-c1nnc2ccc(-c3ccccc3)cn12` [Example 24, 3-(2-Methoxyphenyl)-6-phenyl-[1,2,4]triazolo[4,3-a]pyridine], the IC50 ([1]; Homo sapiens) was greater than 10000 nM, the IC50 [2, 7] was greater than 10000 nM and the IC50 ([3]; Homo sapiens) was greater than 10000 nM. It also gave an IC50 [4, 8] greater than 10000 nM and an IC50 ([5]; Homo sapiens) greater than 10000 nM.
Work on `CNc1ccc(-c2ccc3nnc(-c4ccccc4OC)n3c2)cc1` [Example 48, 6-(4-Methylaminophenyl)-3-(2-methoxyphenyl)-[1,2,4]triazolo[4,3-a]pyridine hydrochloride] yielded an EC50 [6] of 74 nM, an IC50 ([1]; Homo sapiens) of 31 nM and an IC50 ([3]; Homo sapiens) of 26 nM. For the same compound, the IC50 [4, 8] was 11 nM and the IC50 ([5]; Homo sapiens) was 18 nM.
In the case of `CNc1ccc(-c2ccc3nnc(-c4ccc(C)cc4OC)n3c2)cc1` [Example 92, 6-(4-Methylaminophenyl)-3-(4-methyl-2-methoxyphenyl)-[1,2,4]triazolo[4,3-a]pyridine], the IC50 ([1]; Homo sapiens) is reported as 23 nM, the IC50 [2, 7] is reported as 7.7 nM and the IC50 ([3]; Homo sapiens) is reported as 11 nM. For the same compound, the IC50 [4, 8] was 23 nM and the IC50 ([5]; Homo sapiens) was 8.8 nM.
Work on `COc1ccccc1-c1nnc2ccc(-c3ccc([N+](=O)[O-])cc3)cn12` [Example 39, 3-(2-Methoxyphenyl)-6-(4-nitrophenyl)-[1,2,4]triazolo[4,3-a]pyridine] yielded an IC50 ([1]; Homo sapiens) of 3250 nM, an IC50 [2, 7] greater than 10000 nM and an IC50 ([3]; Homo sapiens) of 3000 nM. It also gave an IC50 [4, 8] of 5440 nM and an IC50 ([5]; Homo sapiens) greater than 10000 nM.
With `CCc1ccc(-c2ccc3nnc(-c4ccccc4OC)n3c2)cc1` [Example 7, 6-(4-Ethylphenyl)-3-(2-methoxyphenyl)-[1,2,4]triazolo[4,3-a]pyridine] the IC50 ([1]; Homo sapiens) was 136 nM, the IC50 [2, 7] was 220 nM and the IC50 ([3]; Homo sapiens) was 217 nM. For the same compound, the IC50 [4, 8] was 59 nM and the IC50 ([5]; Homo sapiens) was 158 nM.
`COc1ccccc1-c1nnc2ccc(-c3ccc(OC(C)C)cc3)cn12` [Example 6, 6-(4-Isopropoxyphenyl)-3-(2-methoxyphenyl)-[1,2,4]triazolo[4,3-a]pyridine] showed an IC50 ([1]; Homo sapiens) of 1160 nM, an IC50 [2, 7] of 591 nM and an IC50 ([3]; Homo sapiens) of 1060 nM. The IC50 [4, 8] was 535 nM and the IC50 ([5]; Homo sapiens) was 697 nM.
With `COc1ccccc1-c1nnc2ccc(-c3ccc(N(C)C)cc3)cn12` [Example 17, 6-(4-Dimethylaminophenyl)-3-(2-methoxyphenyl)-[1,2,4]triazolo[4,3-a]pyridine] the EC50 [6] was 86 nM, the IC50 ([1]; Homo sapiens) was 48 nM and the IC50 ([3]; Homo sapiens) was 29 nM. For the same compound, the IC50 [4, 8] was 14 nM and the IC50 ([5]; Homo sapiens) was 65 nM.
With `COc1ccc(-c2ccc3nnc(-c4ccc(C(F)(F)F)cc4OC)n3c2)cc1` [Example 60, 3-(2-Methoxy-4-trifluoromethylphenyl)-6-(4-methoxyphenyl)-[1,2,4]triazolo[4,3-a]pyridine] the IC50 ([1]; Homo sapiens) was 41 nM, the IC50 [2, 7] was 37 nM and the IC50 ([3]; Homo sapiens) was 91 nM. It also gave an IC50 [4, 8] of 18 nM and an IC50 ([5]; Homo sapiens) of 68 nM.
For `COc1cc(C)ccc1-c1nnc2ccc(-c3ccc(C)c(N)c3)cn12` [Example 91, 6-(3-Amino-4-methylphenyl)-3-(4-methyl-2-methoxyphenyl)-[1,2,4]triazolo[4,3-a]pyridine], the IC50 ([1]; Homo sapiens) was 39 nM, the IC50 [2, 7] was 23 nM and the IC50 ([3]; Homo sapiens) was 42 nM. The IC50 [4, 8] was 13 nM and the IC50 ([5]; Homo sapiens) was 31 nM.
In the case of `CCOc1ccc(-c2ccc3nnc(-c4ccccc4OC)n3c2)cc1` [Example 38, 6-(4-Ethoxyphenyl)-3-(2-methoxyphenyl)-[1,2,4]triazolo[4,3-a]pyridine], the IC50 ([1]; Homo sapiens) is reported as 80 nM, the IC50 [2, 7] is reported as 129 nM and the IC50 ([3]; Homo sapiens) is reported as 49 nM. It also gave an IC50 [4, 8] of 27 nM and an IC50 ([5]; Homo sapiens) of 74 nM.
Compound `COc1ccccc1-c1nnc2ccc(-c3ccc(C(F)(F)F)cc3)cn12` [Example 27, 3-(2-Methoxyphenyl)-6-(4-trifluoromethylphenyl)-[1,2,4]triazolo[4,3-a]pyridine] has an IC50 ([1]; Homo sapiens) of 2640 nM, an IC50 [2, 7] of 3820 nM and an IC50 ([3]; Homo sapiens) of 9630 nM. For the same compound, the IC50 [4, 8] was 2250 nM and the IC50 ([5]; Homo sapiens) was 4260 nM.
With `CNc1ccc(-c2ccc3nnc(-c4ccc(Cl)cc4OC)n3c2)cc1` [Example 88, 3-(4-Chloro-2-methoxyphenyl)-6-(4-methylaminophenyl)-[1,2,4]triazolo[4,3-a]pyridine] the IC50 ([1]; Homo sapiens) was 6 nM, the IC50 [2, 7] was 5.1 nM and the IC50 ([3]; Homo sapiens) was 4.4 nM. The IC50 [4, 8] was 1.8 nM and the IC50 ([5]; Homo sapiens) was 3.6 nM.
In the case of `CCCCCCOc1ccc(-c2ccc3nnc(-c4ccccc4OC)n3c2)cc1` [Example 34, 6-(4-Hexyloxyphenyl)-3-(2-methoxyphenyl)-[1,2,4]triazolo[4,3-a]pyridine], the IC50 ([1]; Homo sapiens) is reported as greater than 10000 nM, the IC50 [2, 7] is reported as greater than 10000 nM and the IC50 ([3]; Homo sapiens) is reported as greater than 10000 nM. For the same compound, the IC50 [4, 8] was greater than 10000 nM and the IC50 ([5]; Homo sapiens) was greater than 10000 nM.
`COc1ccccc1-c1nnc2ccc(-c3ccc(OC(F)(F)F)cc3)cn12` [Example 11, 3-(2-Methoxyphenyl)-6-(4-trifluoromethoxyphenyl)-[1,2,4]trizolo[4,3-a]pyridine] showed an IC50 [1] of 5290 nM, an IC50 ([2]; B16F10 cells) of 5000 nM and an IC50 [3] greater than 10000 nM. The IC50 ([4]; SMMC7721 cells) was 2910 nM and the IC50 [5] was greater than 10000 nM.
`COc1ccccc1-c1nnc2ccc(-c3ccc(OC)c([N+](=O)[O-])c3)cn12` [Example 40, 6-(4-Methoxy-3-nitrophenyl)-3-(2-methoxyphenyl)-[1,2,4]triazolo[4,3-a]pyridine] showed an IC50 ([1]; Homo sapiens) of 2460 nM, an IC50 [2, 7] greater than 10000 nM and an IC50 ([3]; Homo sapiens) of 2660 nM. For the same compound, the IC50 [4, 8] was 72 nM and the IC50 ([5]; Homo sapiens) was 896 nM.
